The values that follow are results of earlier work, collected in patent EP1928431B1, “CONTROLLED RELEASE PHARMACEUTICAL COMPOSITION CONTAINING CARVEDILOL” (Egis Gyógyszergyár Nyilvánosan Múködö Részvénytársaság, priority 2005, dated 2007).

Converted amounts (≈) assume the structure as drawn. Read-outs that look alike come from different tables or passages of the source.

For data set [1] the following is noted: WO01/35958.
For data set [2] the following is noted: orally administered and absorbed taken as 100%.
The conditions of data set [3]: in water.

Consider `COc1ccccc1OCCNCC(O)COc1cccc2[nH]c3ccccc3c12` (stereo not drawn) [carvedilol, 1-[9'H-carbazol-4'-yloxy]-3-[{2"-(2""-<methoxy>-phenoxy)-ethyl}-amino]-propan-2-ol], for which the solubility in water in data set [1] was 10 µg/mL (≈ 24.6 µM). For the same compound, the absorption is listed as 28% in data set [2] (administered in ileum), 7% in data set [2] (administered in the colon) and 56% in data set [2] (administered in the jejunum). The solubility (in general, how much of the substance goes into solution per volume) in data set [3] (pH 1) is 1000 µg/mL (≈ 2460 µM); in data set [3] (pH 8), 10 µg/mL (≈ 24.6 µM).
